Literature values, collected in patent publication US7767860B2, “Substituted amino alcohols” (Auspex Pharmaceuticals, Inc, priority 2007, dated 2010).

Tested on: Mycobacterium tuberculosis
Settings: fold more potent; Hausler et al 2001; Stauffer et al 2002

For `CC[C@@H](CO)NCCN[C@@H](CC)CO` [Ethambutol, 2-[2-(1-hydroxybutan-2-ylamino)ethylamino]butan-1-ol], the “potency of the (S,S)-enantiomer relative to the (R,R)-enantiomer and the meso-isomer” value is listed as 200-500 times.
